# Literature values as cited in US20090306027A1 (priority 2006, published 2009).
# Structures can show the parent of a compound that is named as a salt.
SMILES,"solubility in organic solvents (organic solvents such as ethanol, ether and chloroform)",solubility in water,solubility in alcohol (alcohol),solubility in ether (ether)
"O=[N+]([O-])O[C@H]1CO[C@H]2[C@@H]1OC[C@H]2O[N+](=O)[O-] [Diluted isosorbide dinitrate, 1,4,3,6-dianhydro-D-glucitol-2,5-dinitrate]",freely soluble,sparingly soluble,,
"NNc1nncc2ccccc12 [Hydralazine hydrochloride, hydralazine hydrochloride]",,soluble,slightly soluble,very slightly soluble
